“Also recorded” adds a separate entry of the source.
Tests used:
[1] = tested on: interaction between E2F1 and SENP7 V5 RNA; assay: Anti-E2F1 RIP, co-immunoprecipitating SENP7 V5 transcripts by qRT-PCR; type: cell-based; conditions: 5 μM; HCT116 cells; FIG. 4C
Method: C) HCT116 cells were treated with 5 μM PRMT5 inhibitor (P5 inh) where indicated prior to performing an anti-E2F1 RIP. Co-immunoprecipitating SENP7 V5 transcripts were analysed by qRT-PCR.
RNA was isolated from cells using TRIzol (Thermo Fisher) according to the manufacturer's instructions. 1 μg of total RNA was used for cDNA synthesis. For standard mRNA analysis oligo(d)T20 (Invitrogen) was added. For splice variant analysis, RNA was DNAse treated (Sigma-Aldrich) prior to cDNA synthesis using random hexamers (Invitrogen). M-MLV reverse transcriptase (Promega) was used as per the manufacturer's instructions. qRT-PCR was carried out in triplicate using the indicated primer pairs and Brilliant III SYBR Green QPCR Master Mix (Stratagene) on an MX3005P (Agilent) QPCR instrument. Results were expressed as average (mean) fold change compared to control treatments using the ΔΔCt method from three biological repeat samples. GAPDH or actin primer sets were used as an internal calibrator. Error bars represent standard error unless otherwise indicated.
Cells were washed once with PBS before UV cross-linking at 900 mJ/cm^2 using a Stratalinker (Stratagene). RIP lysis buffer (50 mM Tris-HCl pH 8.0, 150 mM NaCl, 1 mM MgCl2, 10% glycerol [v/v], 1% NP-40 [v/v], 1 mM DTT, 0.2 mM sodium orthovanadate and protease inhibitor cocktails) was added directly to the plate, on ice. […]

[2] = tested on: chromatin-associated HP1a; assay: ChIP with anti-HP1a antibody on the p73 promoter; type: cell-based; conditions: PRMT5 inhibitor 24 h or 48 h; U2OS cells; FIG. 6B
Method: B) As above, though cells were treated with the PRMT5 inhibitor (P5 inh) for 24 h or 48 h as indicated. ChIP analysis was performed with anti-HP1a specific or control antibodies (i).
C) U2OS cells were transfected with SENP7 siRNA or non-targeting siRNA (siNT) for 96 h as indicated. Cells were then prepared for ChIP analysis as above (i).
(§1) ChIP was performed as described previously [(29) or (30)]. Antibodies used for immunoprecipitation were as follows: anti-E2F1 (C-20), anti-HA (16B12), anti-HP1α (NB110-40623, Novus Biologicals; RRID: AB_714949), anti-SUMO2/3 (8A2; Abcam; RRID: AB_1658424), non-specific rabbit or mouse IgG. The recovered DNA was analysed in triplicate by real-time QPCR as described (30, 31) on a MX3005P QPCR system using Brilliant III SYBR Green QPCR Master Mix according to the manufacturer's instructions. Results were expressed as average (mean) fold change compared to IgG control treatments using the ΔΔCt method from triplicate biological repeat samples. Alternatively, a standard curve was generated to calculate ChIP/input signals that were subsequently used to generate fold change values compared to IgG control. Error bars represent standard error unless otherwise indicated.

[3] = tested on: interaction of snRNA with E2F1; assay: Anti-E2F1 RNA immunoprecipitation (RIP), co-immunoprecipitating snRNA by qRT-PCR; type: cell-based; conditions: 5 μM PRMT5 inhibitor; U2OS, HCT116 and MCF7 cells; FIGS. 3B, E and F
Method: B) U2OS cells were treated with 5 μM PRMT5 inhibitor (P5 inh) as indicated, prior to performing an anti-E2F1 RIP. Co-immunoprecipitating U6 (i) and U4 (ii) snRNAs were identified with specific primers by qRT-PCR. Input protein levels were determined by immunoblot (iii). n=3
E) HCT116 cells were treated with 5 μM PRMT5 inhibitor (P5 inh) where indicated, prior to performing an anti-E2F1 RIP. Co-immunoprecipitated U1 (i) and U6 (ii) snRNA were detected by qRT-PCR.
F) As above, though the experiment was performed in MCF7 cells.
A) U2OS cells (i) and HCT116 cells (ii) were transfected for 96 h with 25 nM non-targeting (siNT) or p100/TSN specific siRNA, prior to lysis in RIP buffer. Cell extracts were immunoprecipitated with E2F1 antibody and co-immunoprecipitating RNA was reverse transcribed prior to QPCR analysis with primers against U5 (i) and U6 (ii) snRNAs as indicated. Input protein levels were determined by immunoblot.
RNA was isolated from cells using TRIzol (Thermo Fisher) according to the manufacturer's instructions. 1 μg of total RNA was used for cDNA synthesis. For standard mRNA analysis oligo(d)T20 (Invitrogen) was added. […] Results were expressed as average (mean) fold change compared to control treatments using the ΔΔCt method from three biological repeat samples. […]

[4] = tested on: chromatin-associated SUMOylation on the p73 promoter; assay: ChIP with anti-SUMO2/3 antibody on the p73 promoter; type: cell-based; conditions: 5 μM, 72 h; U2OS cells; FIG. 6A
Method: as §1, with “A) U2OS cells were treated with 5 μM PRMT5 inhibitor (P5 inh) for 72 h where indicated, prior to ChIP analysis with anti-SUMO2/3 specific or control antibodies. Immunoprecipitated chromatin was analysed using primers specific for the E2F site in the p73 promoter (i). An RT-PCR was also performed to monitor the levels of p73 transcripts in the cell (ii). […] See also FIGS. 10F and 10G. ChIP was” for “ChIP was”

p73 transcripts = assay: RT-PCR of p73 transcripts in treated cells; type: cell-based; conditions: 5 μM; U2OS and HCT116 cells; FIG. 6A, FIGS. 10F and G
Method: A) U2OS cells were treated with 5 μM PRMT5 inhibitor (P5 inh) for 72 h where indicated, prior to ChIP analysis with anti-SUMO2/3 specific or control antibodies. Immunoprecipitated chromatin was analysed using primers specific for the E2F site in the p73 promoter (i). An RT-PCR was also performed to monitor the levels of p73 transcripts in the cell (ii). […] See also FIGS. 10F and 10G. F) U2OS cells were treated with 5 μM PRMT5 inhibitor (P5 inh) as indicated, prior to RNA extraction and qRT-PCR analysis with primers recognising total p73 or CDC6 transcripts as indicated (i). […] 1 μg of total RNA was used for cDNA synthesis. For standard mRNA analysis oligo(d)T20 (Invitrogen) was added. For splice variant analysis, RNA was DNAse treated (Sigma-Aldrich) prior to cDNA synthesis using random hexamers (Invitrogen). M-MLV reverse transcriptase (Promega) was used as per the manufacturer's instructions. qRT-PCR was carried out in triplicate using the indicated primer pairs and Brilliant III SYBR Green QPCR Master Mix (Stratagene) on an MX3005P (Agilent) QPCR instrument. Results were expressed as average (mean) fold change compared to control treatments using the ΔΔCt method from three biological repeat samples. GAPDH or actin primer sets were used as an internal calibrator. Error bars represent standard error unless otherwise indicated.

PRMT5 = PRMT5 (Homo sapiens, UniProt O14744); conditions: cited from earlier work
Mantle Cell Lymphoma = conditions: in vitro and in vivo models of Mantle Cell Lymphoma; cited from earlier work
SENP7 RNA variants = assay: qRT-PCR of SENP7 transcript variants in treated cells; type: cell-based; conditions: 5 μM, 72 h; U2OS and HCT116 cells; FIGS. 4D and 4E
Method: D) U2OS cells were treated for 72 h with 5 μM PRMT5 inhibitor (P5 inh). RNA was then isolated from cells and analysed by qRT-PCR using primers targeting specific SENP7 transcript variants or total SENP7 RNA. […] E) As above, though the experiment was performed in HCT116 cells. n=4 RNA was isolated from cells using TRIzol (Thermo Fisher) according to the manufacturer's instructions. 1 μg of total RNA was used for cDNA synthesis. For standard mRNA analysis oligo(d)T20 (Invitrogen) was added. For splice variant analysis, RNA was DNAse treated (Sigma-Aldrich) prior to cDNA synthesis using random hexamers (Invitrogen). M-MLV reverse transcriptase (Promega) was used as per the manufacturer's instructions. qRT-PCR was carried out in triplicate using the indicated primer pairs and Brilliant III SYBR Green QPCR Master Mix (Stratagene) on an MX3005P (Agilent) QPCR instrument. Results were expressed as average (mean) fold change compared to control treatments using the ΔΔCt method from three biological repeat samples. GAPDH or actin primer sets were used as an internal calibrator. Error bars represent standard error unless otherwise indicated.

Chain of PRMT5 (O14744 whole entry): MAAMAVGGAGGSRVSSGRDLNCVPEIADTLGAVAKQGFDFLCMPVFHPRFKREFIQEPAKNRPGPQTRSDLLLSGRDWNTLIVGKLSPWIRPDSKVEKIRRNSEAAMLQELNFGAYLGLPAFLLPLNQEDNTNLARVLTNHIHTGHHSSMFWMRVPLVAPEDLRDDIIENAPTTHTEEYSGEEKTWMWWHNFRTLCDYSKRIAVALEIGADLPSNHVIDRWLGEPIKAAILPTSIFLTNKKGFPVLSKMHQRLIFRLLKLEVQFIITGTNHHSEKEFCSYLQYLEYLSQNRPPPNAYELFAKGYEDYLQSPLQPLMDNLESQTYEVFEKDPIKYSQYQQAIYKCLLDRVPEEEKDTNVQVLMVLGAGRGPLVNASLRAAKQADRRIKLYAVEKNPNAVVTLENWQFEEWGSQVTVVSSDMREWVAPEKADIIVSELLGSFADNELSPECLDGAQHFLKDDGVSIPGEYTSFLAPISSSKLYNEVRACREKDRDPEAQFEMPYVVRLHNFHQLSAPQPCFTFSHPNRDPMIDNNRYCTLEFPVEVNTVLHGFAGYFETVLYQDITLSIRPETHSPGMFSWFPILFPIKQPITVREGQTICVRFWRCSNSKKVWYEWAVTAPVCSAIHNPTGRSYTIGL
Chain of PRMT5 (Q9BQA1 whole entry partner): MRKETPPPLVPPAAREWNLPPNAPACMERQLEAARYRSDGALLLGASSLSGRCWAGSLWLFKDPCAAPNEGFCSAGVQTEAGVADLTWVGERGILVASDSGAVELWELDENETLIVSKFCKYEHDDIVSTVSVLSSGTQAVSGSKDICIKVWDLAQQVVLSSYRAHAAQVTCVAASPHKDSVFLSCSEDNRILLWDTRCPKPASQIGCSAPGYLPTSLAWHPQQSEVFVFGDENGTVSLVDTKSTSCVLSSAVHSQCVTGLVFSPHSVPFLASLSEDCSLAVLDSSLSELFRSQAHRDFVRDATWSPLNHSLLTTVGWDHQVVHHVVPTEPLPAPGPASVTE

Structure (SMILES): O=C(NC[C@H](O)CN1CCc2ccccc2C1)c1cc(NC2COC2)ncn1 [EPZ015666]
- interaction between E2F1 and V5 RNA [1]: reduced
- association of HP1a with chromatin (p73 promoter) [2]: increased association
- interaction of snRNA with E2F1 [3]: absent
- chromatin-associated SUMOylation on the p73 promoter [4]: increase
- levels of transcription (p73) (p73 transcripts): reduced levels
- inhibition of PRMT5 (PRMT5): potent and selective inhibitor
- antiproliferative effects (Mantle Cell Lymphoma): antiproliferative effects
- level of the SENP7 V5 RNA variant (SENP7 RNA variants): lower level; also recorded: down-regulates
- level of the other SENP7 RNA variants (SENP7 RNA variants): increased

Source: patent US20220118070A1, “CANCER THERAPY BY MODIFYING NEOANTIGEN EXPRESSION” (priority 2019, published 2022)
